{"source": "patent US6962976B2", "about": "“Human TREK2, a stretch- and arachidonic acid-sensitive K+ channel activated by inhalational anesthetics and niluzole” (Centre National de la Recherche Scientifique-CNRS, priority 2000, dated 2005)", "key": {"TREK2": {"biological_target": "T1, TREK2 (Homo sapiens, UniProt P57789)", "T1 construct": "expressed in transfected cells; host or cells: COS cells", "T1 sequence (P57789 1-538)": "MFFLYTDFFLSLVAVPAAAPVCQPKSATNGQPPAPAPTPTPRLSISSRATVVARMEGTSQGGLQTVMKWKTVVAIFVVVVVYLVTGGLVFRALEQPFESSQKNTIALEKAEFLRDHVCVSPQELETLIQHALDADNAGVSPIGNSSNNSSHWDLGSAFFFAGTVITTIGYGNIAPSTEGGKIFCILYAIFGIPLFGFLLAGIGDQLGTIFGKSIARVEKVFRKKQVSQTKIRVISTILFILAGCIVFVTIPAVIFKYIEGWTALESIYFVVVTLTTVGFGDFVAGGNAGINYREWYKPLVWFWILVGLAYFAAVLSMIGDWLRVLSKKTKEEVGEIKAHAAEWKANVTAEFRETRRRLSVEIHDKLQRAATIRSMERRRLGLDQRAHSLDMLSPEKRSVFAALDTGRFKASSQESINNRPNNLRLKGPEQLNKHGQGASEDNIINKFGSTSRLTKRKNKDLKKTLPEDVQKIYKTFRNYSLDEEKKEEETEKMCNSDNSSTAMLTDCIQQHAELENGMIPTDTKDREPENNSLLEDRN", "test": "Whole-cell patch-clamp of TREK2 currents in transfected COS cells", "format": "cell-based", "conditions": "for activation of TREK2 by fatty acids and lysophospholipids (in words): whole-cell current; for effect on TREK2 current in COS cells transfected with only TREK2: no receptor co-expressed", "protocol": "For inside-out patch recordings, pipettes were filled with the EXT solution and the bathing solution was the INT solution buffered either at pH 7.3 or at pH 5.6 in the internal acidosis experiments. Cells were continuously superfused with a microperfusion system during the experiment (0.2 ml per min) done at room temperature. A RK400 patch-clamp amplifier was used for whole-cell and single-channel recordings (Bio-Logic, Claix, France). Single-channel data were low-pass filtered at 5 KHz and digitized at 50 KHz using a DAT recorder (Bio-Logic, Claix, France). pClamp software was used to analyze whole-cell data and Biopatch software (Bio-Logic) to analyze single-channel data.\nConcentrations of volatile anesthetics were adjusted from saturated solutions (isoflurane, 15.3 mM; halothane, 17.5 mM and chloroform, 66.6 mM) in saline at room temperature (16). Mechanical stimulation was applied through an open loop pressure generating system and monitored at the level of the patch pipette by a calibrated pressure sensor (17)."}, "[1]": {"test_system": "TREK2 co-expressed with 5HT4sR", "protocol": "(§1) The voltage-clamp protocol consists of a voltage-ramp of 800 ms duration starting from a holding potential of −80 mV applied every 10 s. The current was monitored at +100 mV.\n(§2) COS cells were seeded at a density of 20,000 cells per 35 mm dish, 24 h prior transfection. Cells were transiently transfected by the classical DEAE-dextran method with 0.2 μg of pIRES-CD8. TREK2 with or without mGluR1, mGluR2 or 5HT4sR expression vectors (a generous gift of Drs J P Pin and A Dumuis, Montpellier, France).\n(§3) Transfected cells were visualized 48 h after transfection using the anti-CD8 antibody-coated beads method.\n(§4) TREK2 was co-expressed with 5HT4sR, a Gs-coupled receptor. […] A third type of G-protein coupled receptor was co-expressed with TREK2. This receptor is the Gq-coupled mGluR1 receptor. […] The Gq-protein is commonly associated with activation of phospholipase C and the consequent production of diacylglycerol (DAG) and inositol 1,4,5-triphosphate (IP 3). Ultimately, DAG leads to activation of PKC and IP 3 to an increase of intracellular Ca^2+."}, "[2]": {"test_system": "TREK2 co-expressed with mGluR2", "test": "Whole-cell TREK2 current, TREK2 co-expressed with Gi-coupled mGluR2 in COS cells", "format": "cell-based, human", "protocol": "as §1, §2, §3, §4"}, "TREK1": {"biological_target": "T2, TREK1 (Homo sapiens, UniProt O95069)", "T2 sequence (O95069 1-426)": "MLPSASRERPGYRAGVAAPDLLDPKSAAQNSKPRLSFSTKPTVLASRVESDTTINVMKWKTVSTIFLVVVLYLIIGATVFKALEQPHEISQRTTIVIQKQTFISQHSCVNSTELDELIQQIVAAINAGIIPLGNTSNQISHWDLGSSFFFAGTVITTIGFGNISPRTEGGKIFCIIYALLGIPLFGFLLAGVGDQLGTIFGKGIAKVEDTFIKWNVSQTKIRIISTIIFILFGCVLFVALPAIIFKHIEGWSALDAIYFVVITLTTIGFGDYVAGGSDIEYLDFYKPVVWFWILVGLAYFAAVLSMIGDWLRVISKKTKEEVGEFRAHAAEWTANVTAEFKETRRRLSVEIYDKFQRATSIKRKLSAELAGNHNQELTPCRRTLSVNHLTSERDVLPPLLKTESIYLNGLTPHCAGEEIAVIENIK", "conditions": "cited from earlier work"}, "TRAAK": {"biological_target": "T3, TRAAK (Homo sapiens, UniProt Q9NYG8)", "T3 sequence (Q9NYG8 1-393)": "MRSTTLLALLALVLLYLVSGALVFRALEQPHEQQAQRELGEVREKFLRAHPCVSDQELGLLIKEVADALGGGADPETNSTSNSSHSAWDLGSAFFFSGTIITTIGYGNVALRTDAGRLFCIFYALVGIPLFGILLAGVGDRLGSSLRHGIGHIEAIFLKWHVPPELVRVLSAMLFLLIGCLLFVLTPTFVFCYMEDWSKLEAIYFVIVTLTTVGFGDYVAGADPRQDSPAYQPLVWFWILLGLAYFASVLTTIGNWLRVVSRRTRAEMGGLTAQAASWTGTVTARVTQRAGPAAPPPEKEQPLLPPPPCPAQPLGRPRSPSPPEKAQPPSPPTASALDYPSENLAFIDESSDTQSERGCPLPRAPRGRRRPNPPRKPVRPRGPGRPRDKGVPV", "conditions": "cited from earlier work"}, "[3]": {"conditions": "1 mM, 0 mV (voltage given for halothane only)"}}, "data": [{"compound": "[Ca+2]", "note": "[Ca^2+]", "values": [{"measurement": "inhibition of TREK2 (in words)", "setting": "TREK2; 1 μM in the recording pipette", "value": "nor the addition of Ca^2+ in the recording pipette (1 μM) were able to induce an inhibition"}]}, {"compound": "CCCCCCCCCCCCCCCC(=O)O", "note": "[palmitic acid]", "values": [{"measurement": "activation of TREK2 by fatty acids and lysophospholipids (in words)", "setting": "TREK2", "value": "not"}]}, {"compound": "NCCc1c[nH]c2ccc(O)cc12", "note": "[5-HT, 5-hydroxytryptamine]", "values": [{"measurement": "effect on TREK2 activity after receptor activation", "setting": "[1]", "value": "decrease of TREK2 activity"}, {"measurement": "effect on TREK2 current in COS cells transfected with only TREK2", "setting": "TREK2", "value": "No effect"}]}, {"compound": "N[C@@H](CCC(=O)O)C(=O)O", "note": "[glutamate]", "values": [{"measurement": "effect on TREK2 activity after receptor activation", "setting": "[2]", "value": "stimulation of TREK2 activity"}, {"measurement": "time to reverse the TREK2 increase after washing", "setting": "[2]", "value": "more than 10 minutes"}, {"measurement": "effect on TREK2 current in COS cells transfected with only TREK2", "setting": "TREK2", "value": "No effect"}]}, {"compound": "CCCCCCCCCCCCCC(=O)O[C@@H]1[C@@H](C)[C@@]2(O)[C@@H](C=C(CO)C[C@]3(O)C(=O)C(C)=C[C@@H]23)[C@@H]2C(C)(C)[C@]12OC(C)=O", "note": "[PMA]", "values": [{"measurement": "inhibition of TREK2 (in words)", "setting": "TREK2; 100 nM", "value": "neither the application of the PKC-activator PMA (100 nM) nor the addition of Ca^2+ in the recording pipette (1 μM) were able to induce an inhibition"}]}, {"compound": "[Ba+2]", "note": "[Ba^2+]", "values": [{"measurement": "sensitivity of TREK2 currents", "setting": "TREK2; 1 mM", "value": "insensitive"}]}, {"compound": "lysophosphatidylinositol", "values": [{"measurement": "fold increase of TREK2 current", "setting": "TREK2; 10 μM, at 0 mV", "value": "5.1±0.6", "unit": "fold increase"}]}, {"compound": "FC(F)OC(Cl)C(F)(F)F", "note": "(centres unmarked) [isoflurane]", "values": [{"measurement": "fold increase of TREK2 current", "setting": "TREK2; [3]", "value": "1.9±0.1", "unit": "fold increase"}]}, {"compound": "ClC(Cl)Cl", "note": "[chloroform]", "values": [{"measurement": "fold increase of TREK2 current", "setting": "TREK2; [3]", "value": "1.8±0.1", "unit": "fold increase"}, {"measurement": "relative efficiency of anesthetics on TREK1", "setting": "TREK1; 1 mM", "value": "more effective than halothane and isoflurane"}]}, {"compound": "CCCCC/C=C\\C/C=C\\C/C=C\\C/C=C\\CCCC(=O)O", "note": "[arachidonic acid]", "values": [{"measurement": "fold increase of TREK2 current", "setting": "TREK2; 10 μM, at 0 mV", "value": "8.4±1.9", "unit": "fold increase"}]}, {"compound": "lysophosphatidylcholine", "values": [{"measurement": "activation of TREK2 by fatty acids and lysophospholipids (in words)", "setting": "TREK2", "value": "activated"}]}, {"compound": "Nc1ncnc2c1nc(Sc1ccc(Cl)cc1)n2[C@@H]1O[C@@H]2COP(=O)(O)O[C@H]2[C@H]1O", "note": "[CPT-cAMP]", "values": [{"measurement": "inhibition of TREK2 activity", "setting": "TREK2; 500 μM, at 0 mV, n=8", "value": "50±5", "unit": "%"}]}, {"compound": "CCCCC/C=C\\C/C=C\\CCCCCCCC(=O)O", "note": "[linoleic acid]", "values": [{"measurement": "activation of TREK2 by fatty acids and lysophospholipids (in words)", "setting": "TREK2", "value": "activated"}]}, {"compound": "CC[N+](CC)(CC)CC", "note": "[tetraethylammonium]", "values": [{"measurement": "sensitivity of TREK2 currents", "setting": "TREK2; 10 mM", "value": "insensitive"}]}, {"compound": "C=C[C@H]1C[N@@]2CC[C@H]1C[C@@H]2[C@@H](O)c1ccnc2ccc(OC)cc12", "note": "[Quinidine]", "values": [{"measurement": "inhibition at 100 µM", "setting": "TREK2; COS, 100 μM", "value": 50, "unit": "%"}]}, {"compound": "Nc1nc2ccc(OC(F)(F)F)cc2s1", "note": "[riluzole]", "values": [{"measurement": "activation of TRAAK (in words)", "setting": "TRAAK", "value": "permanently activated"}, {"measurement": "effect on TREK2 current (in words)", "setting": "TREK2; current monitored at +100 mV", "value": "activated"}, {"measurement": "time course of TREK2 activation (in words)", "setting": "TREK2; followed by a decrease of the activity corresponding to an inhibition", "value": "transient"}, {"measurement": "activation of TREK1 (in words)", "setting": "TREK1", "value": "transiently activated"}]}, {"compound": "FC(F)(F)C(Cl)Br", "note": "(centres unmarked) [halothane]", "values": [{"measurement": "fold increase of TREK2 current", "setting": "TREK2; 0.25 mM, at +100 mV, n=10", "value": "1.4±0.1", "unit": "fold increase"}, {"measurement": "fold increase of TREK2 current", "setting": "TREK2; 0.5 mM, at +100 mV, n=10", "value": "2.6±0.3", "unit": "fold increase"}, {"measurement": "fold increase of TREK2 current", "setting": "TREK2; [3]", "value": "2.3±0.3", "unit": "fold increase"}]}]}
